{"source": "patent US20260115288A1", "about": "“T CELL MANUFACTURING COMPOSITIONS AND METHODS” (BioNTech US Inc., priority 2022, published 2026)", "tested_on": "antigen specific CD8+ T cells", "assay": "Addition of IL-21 to NEO-STIM.RNA cultures", "format": "cell-based, human", "source_text": "In order to improve the NEO-STIM protocol using RNA, IL-21 was explored as an addition to the protocol.\nIn order to improve the NEO-STIM protocol using RNA, IL-21 was explored as an addition to the protocol. […] Using IL-21 in NEO-STIM increases central memory phenotype in antigen specific CD8^+ T cells.", "data": [{"substance": "IL-21: cytokine added to the NEO-STIM protocol using RNA", "values": [{"measurement": "effect on expansion of T cells", "setting": "NEO-STIM process using RNA encoded neoantigenic epitopes", "value": "improves expansion of T cells"}, {"measurement": "effect on central memory phenotype in antigen specific CD8+ T cells", "setting": "NEO-STIM.RNA cultures", "value": "increases the central memory phenotype"}, {"measurement": "effect on priming of specific T cells", "setting": "NEO-STIM.RNA cultures", "value": "improves the priming of specific T cells"}]}]}
